Reference: the Deep4Chem optical property database
Each block holds one compound with its values, some of them ahead of it.

Test: photoluminescence quantum yield (fraction); solvent given as SMILES

photoluminescence quantum yield (in CC1CCCCC1): 0.11
photoluminescence quantum yield (in CC#N): 0.43
photoluminescence quantum yield (in CO): 0.08
SMILES: CCN(CC)c1ccc(-c2nc3cc(C(NC(=O)OC(C)(C)C)C(=O)OC)ccc3o2)c(O)c1 (configuration not stated)

photoluminescence quantum yield (in ClC(Cl)Cl): 0.34
SMILES: F[B-]1(F)n2c(cc3oc4ccccc4c32)C(c2ccc(I)cc2)=C2C=c3oc4ccccc4c3=[N+]21

photoluminescence quantum yield (in ClC(Cl)Cl): 0.672
SMILES: CCC1=C(C)C2C(c3ccc(-c4ccc(-c5nc6c7ccccc7c7ccccc7c6n5-c5ccc(C(C)(C)C)cc5)cc4)cc3)c3c(C)c(CC)c(C)n3[B-](F)(F)[N+]2=C1C (configuration not stated)

photoluminescence quantum yield (in C1CCOC1): 0.017
SMILES: C(=C(c1ccccc1)c1ccccc1)c1ccc(C=C(c2ccccc2)c2ccccc2)cc1

photoluminescence quantum yield (in ClC(Cl)Cl): 0.79
SMILES: N#Cc1nc(N(Cc2ccccc2F)Cc2ccccc2F)c(C#N)nc1N(Cc1ccccc1F)Cc1ccccc1F

photoluminescence quantum yield (in ClCCl): 0.21
SMILES: CCN(CC)c1ccc2cc(-c3nc4cc(C(=O)Nc5cccc(OC)c5)ccc4o3)c(=O)oc2c1

photoluminescence quantum yield (in c1cc(-n2c3ccccc3c3ccccc32)cc(-n2c3ccccc3c3ccccc32)c1): 0.12
SMILES: O=C(c1ccccc1)c1cc2ccc1CCc1ccc(cc1-c1ccc(N(c3ccccc3)c3ccccc3)cc1)CC2

photoluminescence quantum yield (in C1CCOC1): 0.85
SMILES: CN(C)c1ccc(-c2ccc(-c3cc(N4CCCCC4)c(C#N)c4c3-c3ccccc3CC4)s2)cc1

photoluminescence quantum yield (in ClCCl): 1
SMILES: C1=C(c2ccccc2)S[C@]23C1=C(c1ccccc1)[C@H](c1ccccc12)c1ccccc13

photoluminescence quantum yield (in CCO): 0.95
SMILES: OCc1ccc2c3cccc4cccc(c5cccc1c52)c43

photoluminescence quantum yield (in ClCCl): 0.697
SMILES: CCCCCCOc1cc(C=C2C(=O)c3ccccc3C2=O)c(OCCCCCC)cc1C=C1C(=O)c2ccccc2C1=O

photoluminescence quantum yield (in C1CCCCC1): 0.33
SMILES: C[Si](C)(C)c1ccc([Si](C)(C)C)c2ccccc12

photoluminescence quantum yield (in ClCCl): 0.65
SMILES: CCCCCCCCOc1ccc(C2=C3C(C)=C(C#Cc4ccc(B(c5c(C)cc(C)cc5C)c5c(C)cc(C)cc5C)cc4)C(C)=[N+]3[B-](F)(F)n3c(C)c(C#Cc4ccc(B(c5c(C)cc(C)cc5C)c5c(C)cc(C)cc5C)cc4)c(C)c32)cc1

photoluminescence quantum yield (in C1CCCCC1): 0.96
SMILES: CC[Si](CC)(CC)Oc1cccc(O[Si](CC)(CC)CC)c1-c1c2ccccc2c(-c2c(O[Si](CC)(CC)CC)cccc2O[Si](CC)(CC)CC)c2ccccc12

photoluminescence quantum yield (in CO): 0.28
SMILES: Cc1ccc(-c2nc(-c3ccccc3O)[nH]c2-c2ccc(C)cc2)cc1

photoluminescence quantum yield (in C1CCOC1): 0.032
SMILES: C[Si]1(c2ccccc2)C(c2ccc(-n3c4ccccc4c4ccccc43)cc2)=C(c2ccccc2)C(c2ccccc2)=C1c1ccc(-n2c3ccccc3c3ccccc32)cc1

photoluminescence quantum yield (in ClCCl): 0.2
SMILES: c1ccc([B-]23Oc4ccccc4-c4c5[n+]6c(c([n+]42)-c2ccccc2O3)-c2ccccc2O[B-]6(c2ccccc2)Oc2ccccc2-5)cc1

The remaining lines, values behind:

SMILES: c1ccc(C(=C(c2ccccc2)c2ccc(-c3nc4c(-c5ccc(C(=C(c6ccccc6)c6ccccc6)c6ccccc6)cc5)sc(-c5ccc(C(=C(c6ccccc6)c6ccccc6)c6ccccc6)cc5)c4nc3-c3ccc(C(=C(c4ccccc4)c4ccccc4)c4ccccc4)cc3)cc2)c2ccccc2)cc1
photoluminescence quantum yield (in Cc1ccccc1): 0.267
photoluminescence quantum yield (in ClCCl): 0.109

SMILES: CCN(CC)c1ccc(-c2cc3c(s2)c(C(=O)OC)cc(=O)n3C)cc1
photoluminescence quantum yield (in C1CCOC1): 0.97
photoluminescence quantum yield (in CC#N): 0.08
photoluminescence quantum yield (in CCO): 0.04
photoluminescence quantum yield (in CN(C)C=O): 0.16
photoluminescence quantum yield (in CS(C)=O): 0.1
photoluminescence quantum yield (in Cc1ccccc1): 0.98
photoluminescence quantum yield (in ClC(Cl)Cl): 0.99
photoluminescence quantum yield (in ClCCl): 0.91

SMILES: COC(=O)C(NC(=O)OC(C)(C)C)c1ccc2oc(-c3ccc(N(C)C)cc3OC)nc2c1 (configuration not stated)
photoluminescence quantum yield (in CC1CCCCC1): 0.44
photoluminescence quantum yield (in CC#N): 0.88
photoluminescence quantum yield (in CO): 0.97

SMILES: CSc1cc(-c2cc3cc4c5c(c3oc2=O)CCCN5CCC4)oc(=O)c1C#N
photoluminescence quantum yield (in C1CCOC1): 0.9
photoluminescence quantum yield (in CC#N): 0.29
photoluminescence quantum yield (in CC(C)=O): 0.43
photoluminescence quantum yield (in CCOC(C)=O): 0.67
photoluminescence quantum yield (in CN(C)C=O): 0.26
photoluminescence quantum yield (in CO): 0.22
photoluminescence quantum yield (in CS(C)=O): 0.29
photoluminescence quantum yield (in Cc1ccccc1): 0.71
photoluminescence quantum yield (in ClC(Cl)Cl): 0.53
photoluminescence quantum yield (in ClCCl): 0.63

SMILES: CCCCc1ccc(-n2c3c(c4c2c2c(n4-c4ccc(CCCC)cc4)-c4ccc(C(F)(F)F)cc4NB2c2ccccc2)B(c2ccccc2)Nc2cc(C(F)(F)F)ccc2-3)cc1
photoluminescence quantum yield (in Cc1ccccc1): 0.78

SMILES: COc1cnc(-c2cc[n+](C3=C(F)C(F)(F)C(F)(F)[C-]3F)cc2)s1
photoluminescence quantum yield (in CC#N): 0.64
photoluminescence quantum yield (in CC(C)=O): 0.44
photoluminescence quantum yield (in CCO): 0.21
photoluminescence quantum yield (in CN(C)C=O): 0.04
photoluminescence quantum yield (in CO): 0.08
photoluminescence quantum yield (in CS(C)=O): 0.02
photoluminescence quantum yield (in ClC(Cl)Cl): 0.73
photoluminescence quantum yield (in ClCCl): 0.76

SMILES: CCOC(=O)c1cc(C(=O)OCC)c2c(C)ccc(OC(=O)OC(C)(C)C)c2n1
photoluminescence quantum yield (in CCO): 0.22

SMILES: COc1ccc2c(c1)-c1ccccc1C2=O
photoluminescence quantum yield (in C1CCCCC1): 0.0007
photoluminescence quantum yield (in CC#N): 0.034
photoluminescence quantum yield (in CCO): 0.002

SMILES: C#Cc1ccc2ccc3oc(=O)cc(C)c3c2c1
photoluminescence quantum yield (in CCO): 0.23

SMILES: CCCCOC(=O)c1cc(Oc2ccc(C(C)(C)C)cc2)c2c3c(Cl)cc4c5c(cc(Cl)c(c6c(Oc7ccc(C(C)(C)C)cc7)cc(C(=O)OCCCC)c1c26)c53)C(=O)N(c1c(C(C)C)cccc1C(C)C)C4=O
photoluminescence quantum yield (in Cc1ccccc1): 0.79

SMILES: CCC1=C(C)C2=Cc3cscc3B(O)N2C1=O
photoluminescence quantum yield (in CC#N): 0.97
photoluminescence quantum yield (in CCCCCC): 0.18
photoluminescence quantum yield (in CO): 0.35
photoluminescence quantum yield (in CS(C)=O): 0.87
photoluminescence quantum yield (in ClC(Cl)Cl): 0.2

SMILES: COc1ccc(-c2csc(-c3ccncc3)n2)cc1
photoluminescence quantum yield (in CC#N): 0.002
photoluminescence quantum yield (in CCO): 0.22
photoluminescence quantum yield (in CN(C)C=O): 0.158
photoluminescence quantum yield (in CS(C)=O): 0.163
photoluminescence quantum yield (in Cc1ccccc1): 0.037
photoluminescence quantum yield (in ClCCl): 0.089

SMILES: N#Cc1ccc(/C=C2\OC(=O)c3cc(N)ccc32)cc1
photoluminescence quantum yield (in CC#N): 0.062
photoluminescence quantum yield (in CC(C)=O): 0.05
photoluminescence quantum yield (in CC(C)CO): 0.17
photoluminescence quantum yield (in CC(C)O): 0.16
photoluminescence quantum yield (in CCCO): 0.14
photoluminescence quantum yield (in CCO): 0.13
photoluminescence quantum yield (in CCOC(C)=O): 0.047
photoluminescence quantum yield (in CCOCC): 0.031
photoluminescence quantum yield (in CO): 0.11

SMILES: COc1ccc(-c2c3ccc([nH]3)c3nc(c(-c4ccc(C#N)cc4)c4ccc([nH]4)c4ccc([nH]4)c(-c4ccc(OC)cc4)c4ccc2o4)C=C3)cc1
photoluminescence quantum yield (in C1CCOC1): 0.072
photoluminescence quantum yield (in Cc1ccccc1): 0.141
photoluminescence quantum yield (in c1ccccc1): 0.147

SMILES: C(=C\c1ccc(/C=C/c2ccc(N(c3ccccc3)c3ccccc3)cc2)c2nsnc12)/c1ccc(N(c2ccccc2)c2ccccc2)cc1
photoluminescence quantum yield (in C1CCOC1): 0.228
photoluminescence quantum yield (in CCOC(C)=O): 0.275
photoluminescence quantum yield (in CN(C)C=O): 0.061
photoluminescence quantum yield (in Cc1ccccc1): 0.345
photoluminescence quantum yield (in ClC(Cl)Cl): 0.148
photoluminescence quantum yield (in ClCCl): 0.137

SMILES: CCN1c2ccc(/C=N/Nc3ccccn3)cc2Sc2cc(/C=N/Nc3ccccn3)ccc21
photoluminescence quantum yield (in C1CCOC1): 0.15
photoluminescence quantum yield (in CS(C)=O): 0.19
photoluminescence quantum yield (in Cc1ccccc1): 0.14
photoluminescence quantum yield (in ClCCl): 0.37

SMILES: COc1cc(-c2nc3c4cccnc4c4ncccc4c3[nH]2)c(OC)cc1/C=C/c1ccncc1
photoluminescence quantum yield (in C1CCOC1): 0.79
photoluminescence quantum yield (in CC#N): 0.48
photoluminescence quantum yield (in CN(C)C=O): 0.59
photoluminescence quantum yield (in Cc1ccccc1): 0.34

SMILES: COc1ccc2c3ccc(OC)cc3n(-c3ccc(-c4nnc(-c5c(C(C)C)cc(C(C)C)cc5C(C)C)o4)cc3)c2c1
photoluminescence quantum yield (in Cc1ccccc1): 0.03

SMILES: [NH3+]C(Cc1ccc(O)c(O)c1)C(=O)[O-] (configuration not stated)
photoluminescence quantum yield (in O): 0.075

SMILES: c1cc2ccc3cc4cccc5ccc6cc(c1)c2c3c6c54
photoluminescence quantum yield (in C1CCCCC1): 0.31
photoluminescence quantum yield (in CC#N): 0.32
photoluminescence quantum yield (in CO): 0.38
photoluminescence quantum yield (in Cc1ccccc1): 0.47
photoluminescence quantum yield (in ClCCl): 0.24

SMILES: O=Cc1ccc(/C=C/c2nc(N3CCOCC3)c3c([n+]2[O-])CCCC3)cc1
photoluminescence quantum yield (in ClCCl): 0.025

SMILES: COc1ccc(C2=C/C(=C\c3ccc(C#N)cc3)C(=O)N2)cc1OC
photoluminescence quantum yield (in C1COCCO1): 0.188

SMILES: COc1ccc(-c2nc(C(C)=O)c(C)o2)cc1
photoluminescence quantum yield (in CC#N): 0.056
photoluminescence quantum yield (in CCO): 0.053
photoluminescence quantum yield (in CCOC(C)=O): 0.134
photoluminescence quantum yield (in CCOCC): 0.019
photoluminescence quantum yield (in ClCCl): 0.051

SMILES: CCN(CC)c1ccc2cc(C#N)/c(=N\C(=O)c3ccc(F)cc3)oc2c1
photoluminescence quantum yield (in CCO): 0.3
photoluminescence quantum yield (in ClCCl): 0.83

SMILES: COc1ccccc1CC(=O)OCc1c(C)c(=O)n2c(=O)c(C)c(C)n12
photoluminescence quantum yield (in CCO): 0.636

SMILES: CCCCCCCCC1(CCCCCCCC)c2cc(-c3ccc(C(F)(F)F)cc3)ccc2-c2ccc(N(c3ccc(-n4c5ccccc5c5ccccc54)cc3)c3ccc4c(c3)C(CCCCCCCC)(CCCCCCCC)c3cc(-c5ccc(C(F)(F)F)cc5)ccc3-4)cc21
photoluminescence quantum yield (in C1CCOC1): 0.61
photoluminescence quantum yield (in C1COCCO1): 0.71
photoluminescence quantum yield (in CC#N): 0.46
photoluminescence quantum yield (in CC(C)=O): 0.51
photoluminescence quantum yield (in CCCCCC): 0.6
photoluminescence quantum yield (in CCCCOCCCC): 0.67
photoluminescence quantum yield (in CCN(CC)CC): 0.52
photoluminescence quantum yield (in CCOC(C)=O): 0.54
photoluminescence quantum yield (in CCOCC): 0.76
photoluminescence quantum yield (in CN(C)C=O): 0.52
photoluminescence quantum yield (in CS(C)=O): 0.47
photoluminescence quantum yield (in Cc1ccccc1): 0.67
photoluminescence quantum yield (in ClC(Cl)Cl): 0.47
photoluminescence quantum yield (in ClCCl): 0.57
photoluminescence quantum yield (in c1ccccc1): 0.63

SMILES: Nc1cc2oc3cc(O)c(F)cc3c(=O)c2cc1F
photoluminescence quantum yield (in CCO): 0.44

SMILES: COC(=O)C(NC(=O)OC(C)(C)C)c1ccc2oc(-c3ccc(F)cc3)nc2c1 (configuration not stated)
photoluminescence quantum yield (in CC1CCCCC1): 0.49
photoluminescence quantum yield (in CC#N): 0.46
photoluminescence quantum yield (in CO): 0.48

SMILES: N#C/C(=C/Nc1ccc(C#N)cc1)c1nc(-c2ccccc2)cs1
photoluminescence quantum yield (in CC#N): 0
photoluminescence quantum yield (in CCO): 0.0001
photoluminescence quantum yield (in CN(C)C=O): 0.0001
photoluminescence quantum yield (in Cc1ccccc1): 0.0001
photoluminescence quantum yield (in ClCCl): 0.0001

SMILES: COc1ccccc1
photoluminescence quantum yield (in C1CCCCC1): 0.36

SMILES: CC1(C)c2ccccc2N(c2ccccc2)c2ccc(-c3ccc(C(=O)c4ccc(-c5ccc6c(c5)C(C)(C)c5ccccc5N6c5ccccc5)cc4)cc3)cc21
photoluminescence quantum yield (in O=P(c1ccccc1)(c1ccccc1)c1ccccc1Oc1ccccc1P(=O)(c1ccccc1)c1ccccc1): 0.53
